For this data set the following is noted: 298.15 K; 101.33 kPa; Liquid; Alternating current cell with electrodes.

± gives the expanded uncertainty stated by the source.

In the case of `O` [water], the electrical conductivity came to 0.000129 ± 1e-06 S/m.

For the origin of these results see the NIST ThermoML archive (doi:10.1016/j.fluid.2015.05.043).
